The values below come from patent publication US10273206B2 (ALLERGAN, INC., priority 2014, dated 2019).

Structures can show the parent of a compound that is named as a salt. Where two headings read alike, the source gives them in different places. Bounds are passed on as bounds.

For orientation: pKa means the pH at which an ionisable group is half protonated. One may read the solubility as the dissolved amount per volume that the medium holds.

For data set [1] the following is noted: base (source of basic counter ion) used in salt screening, Table 1; cited from earlier work.
The nature of data set [2]: Measured pKa of bimatoprost acid, used for the Henderson-Hasselbalch fit. Format: physicochemical. To be noted: measured pKa used to fit solubility vs. pH plot.
The nature of data set [3]: Physical stability on storage at controlled temperature/relative humidity. Format: physicochemical.
Data set [4] in a line: Dissolution rate compared with the free acid. To be noted: compared with bimatoprost free acid. Format: physicochemical.
Data set [5] is described as follows: pH-solubility determination (shake flask in aqueous media, HPLC quantitation). It is filed as physicochemical. To be noted: thermodynamic from solid. Here is the method: The pH was checked, and adjusted if necessary, at intervals of 1, 5, 23, 28 and 47 hrs. An aliquot of sample was taken off at 24 hrs and the final pH was recorded. The suspension was then filtered through a glass fiber C filter. The filtrate was then diluted by an appropriate factor. This was repeated at 48 hours. Quantitation was by HPLC with reference to 6 standard solutions of concentrations between 0.3873-0.0008 mg/ml dissolved in 66:21:13 H2O:ACN:MeOH.

Data set [6] is described as follows: Gravimetric vapor sorption (GVS) analysis. It is filed as physicochemical. As to the method:
The salt was then crystallized from ethyl acetate as follows. The lyophilized solid sample in ethyl acetate was subjected to initial heat/cool cycles using an Anachem React-Array. The sample was then subjected to three heat/cool cycles by using the following procedure: heating to 50° C. at 5° C./min, holding at 50° C. for 30 minutes, followed by cooling to 0° C. at 0.1° C./min, holding at 0° C. for 1 hour under constant stirring at 500 rpm. The recovered material (crystalline form 1) was analyzed by XRPD (FIG. 6), ^1H NMR, thermal analysis, and gravimetric vapor sorption (GVS) analysis, as summarized in Table 2.
Without being bound by any particular theory, the significant uptake of moisture may be a result of the large specific surface area of the material. On desorption, the adsorbed water was rapidly lost with no equilibrium established. At the end of the gravimetric vapor sorption (GVS) cycle, at 40% RH, the overall sample mass increased by 5 wt %.

For `NCCN` [Ethylenediamine], the pKa in data set [1] is given as 10.09.
As to `OCCN1CCOCC1` [Hydroxyethyl-morpholine], in data set [1], the pKa was 7.39.
Regarding `CCNC[C@H](O)[C@@H](O)[C@H](O)[C@H](O)CO` [N-ethyl-glucamine], in data set [1], the pKa is reported as 8.03.
Regarding `O=C(O)CCC/C=C\C[C@@H]1[C@@H](/C=C/[C@@H](O)CCc2ccccc2)[C@H](O)C[C@@H]1O` [bimatoprost acid, (Z)-7-[3,5-Dihydroxy-2-((E)-3-hydroxy-5-phenyl-pent-1-enyl)-cyclopentyl]-hept-5-enoic acid], the pKa in data set [2] came to 4.76.
With `NC(=O)NCCC[C@H](N)C(=O)O` [Citrulline], the pKa in data set [1] was 7.00.
For `O=C(O)CCC/C=C\C[C@@H]1[C@@H](/C=C/[C@@H](O)CCc2ccccc2)[C@H](O)C[C@@H]1O` [tromethamine salt of (Z)-7-[3,5-Dihydroxy-2-((E)-3-hydroxy-5-phenyl-pent-1-enyl)-cyclopentyl]-hept-5-enoic acid], the “physically stable for (time)” value is on record as over 3 months in data set [3] (25° C./60% relative humidity (RH), open container closure) and over 3 months in data set [3] (40° C./75% RH, closed container closure). In data set [4], the “dissolution rate relative to the free acid” value was “faster dissolution rate than the free acid”. Besides, the solubility thermodynamic in data set [5] (25 °C, aqueous buffer, at pH 6.8, read-out: solubility) was about 250 mg/mL; in data set [5] (pH 6.5, aqueous buffer, pH above 6.5, 25° C., FIG. 5, read-out: solubility of the salt), at least 250 mg/mL. The solubility at 48 h in data set [5] (25 °C, pH 2, aqueous buffer, pH 2 (solubility of the free acid), 25° C., FIG. 5, read-out: intrinsic solubility) was 1.39 mg/mL; in data set [5] (25 °C, pH 6.5, aqueous buffer, at pH 6.5, see FIG. 5, read-out: solubility), at least 250 mg/mL; in data set [5] (25 °C, pH 6.5, aqueous buffer, pH above 6.5, 25° C., FIG. 5, read-out: solubility of the salt) it was over 250 mg/mL. Moreover, the GVS analysis result in data set [6] (90% RH) was 90% RH, no deliquescence, no hydrate. Moreover, the “overall sample mass increase at the end of the GVS cycle” value in data set [6] (at 40% RH, end of GVS cycle) stood at 5 wt %. Also, in data set [6] (post GVS analysis, FIG. 3), the “XRPD re-analysis of the sample post GVS analysis (form change)” value is given as “no change in the crystalline Form 1”. The “moisture uptake behaviour on storage” value in data set [6] (stored at or above 80% RH) is “behaves hygroscopically, with significant moisture uptake observed”.
Consider `CCN(CC)CCO` [2-diethylamino ethanol], for which the pKa in data set [1] is 9.58.
As to `C[N+](C)(C)CCO` [Choline], in data set [1], the pKa is reported as 11.00.
